Measurements reported in the supplement of paper PMC7695840.
Structures can show the parent of a compound that is named as a salt.

Experiments:
[1] = tested on: Staphylococcus aureus MW2 delta-mecA (mecA-); experiment: IC50 (growth, competition assay); settings: cefoxitin: subinhibitory
Summary of the method: (§1)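 Signals from DsRed (540/590) and GFP (485/520) were scaled on every plate between single-strain control medians, with No Treatment then set to 0.5. The cells were a 1:1 mix of pre-induced fluorescent S. aureus MW2 strains with and without the resistance gene, grown unshaken for 20 h at 37 °C and 90% humidity in LB in 1536-well plates under a subinhibitory drug dose set each day. Each strain's IC50 was defined as the dose halving the No Treatment signal, or the maximal signal.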

[2] = tested on: Staphylococcus aureus MW2 (mecA+); experiment: IC50 (growth, competition assay); settings: cefoxitin: subinhibitory
Summary of the method: as §1

N#Cc1cc([N+](=O)[O-])c2sc(C(N)=O)[n+]([O-])c2c1 [BTO-1]
IC50 ([1]; fluorescent label: DsRed): < 9.85 µM | IC50 ([1]; fluorescent label: GFP): < 9.85 µM | IC50 ([2]; fluorescent label: DsRed): 19.5 µM | IC50 ([2]; fluorescent label: GFP): 18.9 µM

CC[C@H](C)[C@H](N)C1=N[C@H](C(=O)N[C@@H](CC(C)C)C(=O)N[C@H](CCC(=O)[O-])C(=O)N[C@H](C(=O)N[C@H]2CCCCNC(=O)[C@H](CC(N)=O)NC(=O)[C@@H](CC(=O)[O-])NC(=O)[C@H](Cc3cnc[nH]3)NC(=O)[C@@H](Cc3ccccc3)NC(=O)[C@H]([C@@H](C)CC)NC(=O)[C@@H](CCCN)NC2=O)[C@@H](C)CC)CS1.[Zn+2] [Bacitracin zinc]
IC50 ([1]; fluorescent label: DsRed): 4.32 µM | IC50 ([1]; fluorescent label: GFP): 4.06 µM | IC50 ([2]; fluorescent label: DsRed): 35.2 µM | IC50 ([2]; fluorescent label: GFP): 49.1 µM

Cc1ccc(S(=O)(=O)C=CC#N)cc1 [Bay 11-7082]
IC50 ([1]; fluorescent label: DsRed): < 9.85 µM | IC50 ([1]; fluorescent label: GFP): < 9.85 µM | IC50 ([2]; fluorescent label: DsRed): < 9.85 µM | IC50 ([2]; fluorescent label: GFP): < 9.85 µM

CC(C)(C)c1ccc(S(=O)(=O)/C=C/C#N)cc1 [Bay 11-7085]
IC50 ([1]; fluorescent label: DsRed): < 9.85 µM | IC50 ([1]; fluorescent label: GFP): < 9.85 µM | IC50 ([2]; fluorescent label: DsRed): < 9.85 µM | IC50 ([2]; fluorescent label: GFP): < 9.85 µM

Cc1c(-c2ccc(O)cc2)n(Cc2ccc(OCCN3CCCCCC3)cc2)c2ccc(O)cc12 [Bazedoxifene HCl]
IC50 ([1]; fluorescent label: DsRed): 13.5 µM | IC50 ([1]; fluorescent label: GFP): 28.3 µM | IC50 ([2]; fluorescent label: DsRed): 56.8 µM | IC50 ([2]; fluorescent label: GFP): 56.6 µM

C[C@@H](O)[C@H]1C(=O)N2C(C(=O)[O-])=C(SC3Cn4cnc[n+]4C3)[C@H](C)[C@H]12 (stereo not given in full) [Biapenem]
IC50 ([1]; fluorescent label: DsRed): 31.4 µM | IC50 ([1]; fluorescent label: GFP): 24.7 µM | IC50 ([2]; fluorescent label: DsRed): 104 µM | IC50 ([2]; fluorescent label: GFP): 112 µM

C=CCc1ccccc1OCC(O)CNC1(C)CCC(C(C)(C)NC(=O)CBr)CC1 (stereo not given) [Bromoacetyl alprenolol menthane]
IC50 ([1]; fluorescent label: DsRed): < 9.85 µM | IC50 ([1]; fluorescent label: GFP): < 9.85 µM | IC50 ([2]; fluorescent label: DsRed): 14.8 µM | IC50 ([2]; fluorescent label: GFP): 14.2 µM

O=C(/C=C/c1ccc(O)c(O)c1)c1ccc(O)cc1O [Butein]
IC50 ([1]; fluorescent label: DsRed): 21.3 µM | IC50 ([1]; fluorescent label: GFP): 30.4 µM | IC50 ([2]; fluorescent label: DsRed): 92.3 µM | IC50 ([2]; fluorescent label: GFP): 98.5 µM

Oc1c(Cl)cc(Cl)c2cccnc12 [CAPITROL]
IC50 ([1]; fluorescent label: DsRed): < 9.85 µM | IC50 ([1]; fluorescent label: GFP): < 9.85 µM | IC50 ([2]; fluorescent label: DsRed): 17.9 µM | IC50 ([2]; fluorescent label: GFP): 30 µM

O=C1C2CC=CCC2C(=O)N1SC(Cl)(Cl)Cl (stereo not given) [CAPTAN]
IC50 ([1]; fluorescent label: DsRed): < 9.85 µM | IC50 ([1]; fluorescent label: GFP): < 9.85 µM | IC50 ([2]; fluorescent label: DsRed): 15.7 µM | IC50 ([2]; fluorescent label: GFP): 18 µM

O=c1[nH]cc(F)c(=O)[nH]1 [CARAC]
IC50 ([1]; fluorescent label: DsRed): < 9.85 µM | IC50 ([1]; fluorescent label: GFP): < 9.85 µM | IC50 ([2]; fluorescent label: DsRed): < 9.85 µM | IC50 ([2]; fluorescent label: GFP): < 9.85 µM

CC1(C)S[C@@H]2[C@H](NC(=O)C(C(=O)O)c3ccccc3)C(=O)N2[C@H]1C(=O)O (stereo not given in full) [CARBECIN]
IC50 ([1]; fluorescent label: DsRed): < 9.85 µM | IC50 ([1]; fluorescent label: GFP): < 9.85 µM | IC50 ([2]; fluorescent label: DsRed): 23.7 µM | IC50 ([2]; fluorescent label: GFP): 36.6 µM

CC(C)c1cc2c(c(O)c1O)[C@@]1(C(=O)O)CCCC(C)(C)[C@@H]1CC2 [CARNOSIC ACID]
IC50 ([1]; fluorescent label: DsRed): < 9.85 µM | IC50 ([1]; fluorescent label: GFP): < 9.85 µM | IC50 ([2]; fluorescent label: DsRed): 27.2 µM | IC50 ([2]; fluorescent label: GFP): 38.8 µM

O=C(O)c1ccc2cc(-c3ccc(O)c(C45CC6CC(CC(C6)C4)C5)c3)ccc2c1 [CD 437]
IC50 ([1]; fluorescent label: DsRed): < 9.85 µM | IC50 ([1]; fluorescent label: GFP): < 9.85 µM | IC50 ([2]; fluorescent label: DsRed): < 9.85 µM | IC50 ([2]; fluorescent label: GFP): < 9.85 µM

N[C@@H](C(=O)N[C@@H]1C(=O)N2C(C(=O)O)=C(Cl)CS[C@H]12)c1ccccc1 [CECLOR]
IC50 ([1]; fluorescent label: DsRed): < 9.85 µM | IC50 ([1]; fluorescent label: GFP): < 9.85 µM | IC50 ([2]; fluorescent label: DsRed): 87.9 µM | IC50 ([2]; fluorescent label: GFP): 87.8 µM

Nc1nc(/C(=C/CC(=O)O)C(=O)N[C@@H]2C(=O)N3C(C(=O)O)=CCS[C@H]23)cs1 [CEDAX]
IC50 ([1]; fluorescent label: DsRed): < 9.85 µM | IC50 ([1]; fluorescent label: GFP): < 9.85 µM | IC50 ([2]; fluorescent label: DsRed): 18.2 µM | IC50 ([2]; fluorescent label: GFP): 18.9 µM

CC(=O)OCC1=C(C(=O)O)N2C(=O)[C@@H](NC(=O)CSc3ccncc3)[C@H]2SC1 [CEFADYL]
IC50 ([1]; fluorescent label: DsRed): < 9.85 µM | IC50 ([1]; fluorescent label: GFP): < 9.85 µM | IC50 ([2]; fluorescent label: DsRed): < 9.85 µM | IC50 ([2]; fluorescent label: GFP): < 9.85 µM

NC(=O)c1cc[n+](CC2=C(C(=O)[O-])N3C(=O)[C@@H](NC(=O)Cc4cccs4)[C@H]3SC2)cc1 [CEFALONIUM]
IC50 ([1]; fluorescent label: DsRed): < 9.85 µM | IC50 ([1]; fluorescent label: GFP): < 9.85 µM | IC50 ([2]; fluorescent label: DsRed): 17.5 µM | IC50 ([2]; fluorescent label: GFP): 15.3 µM

Cn1nnnc1SCC1=C(C(=O)O)N2C(=O)[C@@H](NC(=O)[C@H](O)c3ccccc3)[C@H]2SC1 [CEFAMANDOLE SODIUM]
IC50 ([1]; fluorescent label: DsRed): < 9.85 µM | IC50 ([1]; fluorescent label: GFP): < 9.85 µM | IC50 ([2]; fluorescent label: DsRed): 53.2 µM | IC50 ([2]; fluorescent label: GFP): 52.5 µM

CO/N=C(\C(=O)N[C@@H]1C(=O)N2C(C(=O)O)=C(CSc3nnnn3C)CS[C@H]12)c1csc(N)n1 [CEFMAX]
IC50 ([1]; fluorescent label: DsRed): < 9.85 µM | IC50 ([1]; fluorescent label: GFP): < 9.85 µM | IC50 ([2]; fluorescent label: DsRed): < 9.85 µM | IC50 ([2]; fluorescent label: GFP): < 9.85 µM

CCN1CCN(C(=O)N[C@@H](C(=O)N[C@@H]2C(=O)N3C(C(=O)O)=C(CSc4nnnn4C)CS[C@H]23)c2ccc(O)cc2)C(=O)C1=O [CEFOBID]
IC50 ([1]; fluorescent label: DsRed): < 9.85 µM | IC50 ([1]; fluorescent label: GFP): < 9.85 µM | IC50 ([2]; fluorescent label: DsRed): 19.5 µM | IC50 ([2]; fluorescent label: GFP): 24.5 µM

CO[C@@]1(NC(=O)C2SC(=C(C(N)=O)C(=O)O)S2)C(=O)N2C(C(=O)O)=C(CSc3nnnn3C)CS[C@@H]21 (stereo not given in full) [CEFOTAN]
IC50 ([1]; fluorescent label: DsRed): < 9.85 µM | IC50 ([1]; fluorescent label: GFP): < 9.85 µM | IC50 ([2]; fluorescent label: DsRed): 14.9 µM | IC50 ([2]; fluorescent label: GFP): 14.9 µM

Cc1cc(O)c(C(=O)N[C@@H](C(=O)N[C@@H]2C(=O)N3C(C(=O)O)=C(CSc4nnnn4C)CS[C@H]23)c2ccc(O)cc2)cn1 [CEFPIRAN]
IC50 ([1]; fluorescent label: DsRed): < 9.85 µM | IC50 ([1]; fluorescent label: GFP): < 9.85 µM | IC50 ([2]; fluorescent label: DsRed): < 9.85 µM | IC50 ([2]; fluorescent label: GFP): < 9.85 µM

CC=CC1=C(C(=O)O)N2C(=O)[C@@H](NC(=O)[C@H](N)c3ccc(O)cc3)[C@H]2SC1 [CEFZIL]
IC50 ([1]; fluorescent label: DsRed): < 9.85 µM | IC50 ([1]; fluorescent label: GFP): < 9.85 µM | IC50 ([2]; fluorescent label: DsRed): 113 µM | IC50 ([2]; fluorescent label: GFP): 109 µM

CC1=C(O)C(=O)C=C2C1=CC=C1[C@@]2(C)CC[C@@]2(C)[C@@H]3C[C@](C)(C(=O)O)CC[C@]3(C)CC[C@]12C [CELASTROL]
IC50 ([1]; fluorescent label: DsRed): < 9.85 µM | IC50 ([1]; fluorescent label: GFP): < 9.85 µM | IC50 ([2]; fluorescent label: DsRed): < 9.85 µM | IC50 ([2]; fluorescent label: GFP): < 9.85 µM

CCCCCCCCCCCCCCCC[n+]1ccccc1 [CEPACOL]
IC50 ([1]; fluorescent label: DsRed): < 9.85 µM | IC50 ([1]; fluorescent label: GFP): < 9.85 µM | IC50 ([2]; fluorescent label: DsRed): < 9.85 µM | IC50 ([2]; fluorescent label: GFP): < 9.85 µM

CCCCCCCCCCCCCCCC[N+](C)(C)C [CETAB]
IC50 ([1]; fluorescent label: DsRed): < 9.85 µM | IC50 ([1]; fluorescent label: GFP): < 9.85 µM | IC50 ([2]; fluorescent label: DsRed): < 9.85 µM | IC50 ([2]; fluorescent label: GFP): < 9.85 µM

COc1cc(-c2ccc(/N=N/c3ccc4c(S(=O)(=O)O)cc(S(=O)(=O)O)c(N)c4c3O)c(OC)c2)ccc1/N=N/c1ccc2c(S(=O)(=O)O)cc(S(=O)(=O)O)c(N)c2c1O [CHICAGO SKY BLUE]
IC50 ([1]; fluorescent label: DsRed): < 9.85 µM | IC50 ([1]; fluorescent label: GFP): < 9.85 µM | IC50 ([2]; fluorescent label: DsRed): 24.8 µM | IC50 ([2]; fluorescent label: GFP): 16.5 µM

O=C1C(Cl)=C(Cl)C(=O)C(Cl)=C1Cl [CHLORANIL]
IC50 ([1]; fluorescent label: DsRed): 16 µM | IC50 ([1]; fluorescent label: GFP): 17.3 µM | IC50 ([2]; fluorescent label: DsRed): 67.1 µM | IC50 ([2]; fluorescent label: GFP): 83.8 µM

Cc1nc2ccccc2n1Cc1ccc(Cl)cc1 [CHLORMIDAZOLE]
IC50 ([1]; fluorescent label: DsRed): < 9.85 µM | IC50 ([1]; fluorescent label: GFP): < 9.85 µM | IC50 ([2]; fluorescent label: DsRed): < 9.85 µM | IC50 ([2]; fluorescent label: GFP): 10.3 µM
